{
  "source": "patent US10688088B2",
  "about": "(priority 2015, dated 2020)",
  "type_in_all_cases": "cell-based, Mycobacterium tuberculosis",
  "key": {"[1]": {"tested_on": "M. tuberculosis T113, resistant to isoniazid (INH), rifampicin (RIF), ethambutol (ETB) and ofloxacin (OFX)", "parameters": "MIC 2: MIC of the substance tested in combination / MIC 1: MIC of the substance tested alone: unit not given beside the values", "details": "for MIC 2: MIC of the substance tested in combination / MIC 1: MIC of the substance tested alone: strain T113"}, "[2]": {"tested_on": "M tuberculosis T3609, resistant to ofloxacin (OFX) and streptomycin", "parameters": "MIC 2: MIC of the substance tested in combination / MIC 1: MIC of the substance tested alone: unit not given beside the values", "details": "for MIC 2: MIC of the substance tested in combination / MIC 1: MIC of the substance tested alone: strain T3609"}, "M. tuberculosis": {"tested_on": "M. tuberculosis", "details": "all the strains (H37Rv, T3609, T113)"}},
  "note": "Read-outs that look alike come from different tables or passages of the source.",
  "data": [
    {"smiles": "CC[C@@H](CO)NCCN[C@@H](CC)CO", "note": "[ETB, ethambutol]", "values": [
      {"measurement": "MIC 2: MIC of the substance tested in combination", "setting": "[1]; combination MFL + ETB", "result": 12.5},
      {"measurement": "MIC 1: MIC of the substance tested alone", "setting": "[1]", "result": 25.0}
    ]},
    {"smiles": "C[C@@H]1CN(c2c(F)c(N)c3c(=O)c(C(=O)O)cn(C4CC4)c3c2F)C[C@H](C)N1", "note": "[SPR, sparfloxacin]", "values": [
      {"measurement": "MIC 2: MIC of the substance tested in combination", "setting": "[2]; combination MFL + SPR", "result": 0.62},
      {"measurement": "MIC 1: MIC of the substance tested alone", "setting": "[2]", "result": 1.25},
      {"measurement": "MIC 2: MIC of the substance tested in combination", "setting": "[1]; combination MFL + SPR", "result": 0.12},
      {"measurement": "MIC 1: MIC of the substance tested alone", "setting": "[1]", "result": 0.12}
    ]},
    {"smiles": "NNC(=O)c1ccncc1", "note": "[INH, isoniazid]", "values": [
      {"measurement": "MIC 2: MIC of the substance tested in combination", "setting": "[2]; combination MFL + INH", "result": 0.015},
      {"measurement": "MIC 1: MIC of the substance tested alone", "setting": "[2]", "result": 0.5},
      {"measurement": "MIC 2: MIC of the substance tested in combination", "setting": "[1]; combination MFL + INH", "result": 3.12},
      {"measurement": "MIC 1: MIC of the substance tested alone", "setting": "[1]", "result": 6.25}
    ]},
    {"smiles": "OC(c1cc(C(F)(F)F)nc2c(C(F)(F)F)cccc12)C1CCCCN1", "note": "(stereo not drawn) [Mefloquine, mefloquine]", "values": [
      {"measurement": "cross-resistance (MIC across strains)", "setting": "M. tuberculosis", "result": "no cross-resistance"},
      {"measurement": "MIC 2: MIC of the substance tested in combination", "setting": "[2]; combination MEF + CPX", "result": 3.12},
      {"measurement": "MIC 2: MIC of the substance tested in combination", "setting": "[2]; combination MEF + LVX", "result": 2.50},
      {"measurement": "MIC 2: MIC of the substance tested in combination", "setting": "[2]; combination MFL + GAT", "result": 0.31},
      {"measurement": "MIC 2: MIC of the substance tested in combination", "setting": "[2]; combination MFL + INH", "result": 0.015},
      {"measurement": "MIC 2: MIC of the substance tested in combination", "setting": "[2]; combination MFL + MOX", "result": 0.62},
      {"measurement": "MIC 2: MIC of the substance tested in combination", "setting": "[2]; combination MFL + OFX", "result": 2.5},
      {"measurement": "MIC 2: MIC of the substance tested in combination", "setting": "[2]; combination MFL + PYR", "result": 0.62},
      {"measurement": "MIC 2: MIC of the substance tested in combination", "setting": "[2]; combination MFL + SPR", "result": 0.62},
      {"measurement": "MICcombination", "setting": "[2]; strain T3609, Tables 1B and 2A", "result": 25, "unit": "µg/mL"},
      {"measurement": "MIC 2: MIC of the substance tested in combination", "setting": "[1]; combination MEF + CPX", "result": 0.31},
      {"measurement": "MIC 2: MIC of the substance tested in combination", "setting": "[1]; combination MEF + LVX", "result": 0.31},
      {"measurement": "MIC 2: MIC of the substance tested in combination", "setting": "[1]; combination MFL + GAT", "result": 0.15},
      {"measurement": "MIC 2: MIC of the substance tested in combination", "setting": "[1]; combination MFL + INH", "result": 3.12},
      {"measurement": "MIC 2: MIC of the substance tested in combination", "setting": "[1]; combination MFL + LYN", "result": 0.31},
      {"measurement": "MIC 2: MIC of the substance tested in combination", "setting": "[1]; combination MFL + MOX", "result": 0.31},
      {"measurement": "MIC 2: MIC of the substance tested in combination", "setting": "[1]; combination MFL + OFX", "result": 0.62},
      {"measurement": "MIC 2: MIC of the substance tested in combination", "setting": "[1]; combination MFL + PYR", "result": 0.62},
      {"measurement": "MIC 2: MIC of the substance tested in combination", "setting": "[1]; combination MFL + SPR", "result": 0.12},
      {"measurement": "MICcombination", "setting": "[1]; strain T113, Table 2B", "result": 25, "unit": "µg/mL"}
    ]},
    {"smiles": "NC(=O)c1cnccn1", "note": "[PYR, pyrazinamide]", "values": [
      {"measurement": "MIC 1: MIC of the substance tested alone", "setting": "[2]", "result": ">100"},
      {"measurement": "MIC 1: MIC of the substance tested alone", "setting": "[1]", "result": ">100"}
    ]},
    {"smiles": "O=C(O)c1cn(C2CC2)c2cc(N3CCNCC3)c(F)cc2c1=O", "note": "[CPX, ciprofloxacin]", "values": [
      {"measurement": "MIC 2: MIC of the substance tested in combination", "setting": "[2]; combination MEF + CPX", "result": 3.12},
      {"measurement": "MIC 1: MIC of the substance tested alone", "setting": "[2]", "result": 5.00},
      {"measurement": "MIC 2: MIC of the substance tested in combination", "setting": "[1]; combination MEF + CPX", "result": 0.31},
      {"measurement": "MIC 1: MIC of the substance tested alone", "setting": "[1]", "result": 0.62}
    ]},
    {"smiles": "CC(=O)NC[C@H]1CN(c2ccc(N3CCOCC3)c(F)c2)C(=O)O1", "note": "[LYN, linezolid]", "values": [
      {"measurement": "MIC 2: MIC of the substance tested in combination", "setting": "[1]; combination MFL + LYN", "result": 0.31},
      {"measurement": "MIC 1: MIC of the substance tested alone", "setting": "[1]", "result": 0.50}
    ]},
    {"smiles": "COc1c(N2C[C@@H]3CCCN[C@@H]3C2)c(F)cc2c(=O)c(C(=O)O)cn(C3CC3)c12", "note": "[MOX, moxifloxacin]", "values": [
      {"measurement": "MIC 2: MIC of the substance tested in combination", "setting": "[2]; combination MFL + MOX", "result": 0.62},
      {"measurement": "MIC 1: MIC of the substance tested alone", "setting": "[2]", "result": 1.25},
      {"measurement": "MIC 2: MIC of the substance tested in combination", "setting": "[1]; combination MFL + MOX", "result": 0.31},
      {"measurement": "MIC 1: MIC of the substance tested alone", "setting": "[1]", "result": 0.25}
    ]},
    {"smiles": "CC1COc2c(N3CCN(C)CC3)c(F)cc3c(=O)c(C(=O)O)cn1c23", "note": "(stereo not drawn) [OFX, ofloxacin]", "values": [
      {"measurement": "MIC 2: MIC of the substance tested in combination", "setting": "[2]; combination MFL + OFX", "result": 2.5},
      {"measurement": "MIC 1: MIC of the substance tested alone", "setting": "[2]", "result": 5.0},
      {"measurement": "MIC 2: MIC of the substance tested in combination", "setting": "[1]; combination MFL + OFX", "result": 0.62},
      {"measurement": "MIC 1: MIC of the substance tested alone", "setting": "[1]", "result": 1.25}
    ]},
    {"smiles": "C[C@H]1COc2c(N3CCN(C)CC3)c(F)cc3c(=O)c(C(=O)O)cn1c23", "note": "[LVX, levofloxacin]", "values": [
      {"measurement": "MIC 2: MIC of the substance tested in combination", "setting": "[2]; combination MEF + LVX", "result": 2.50},
      {"measurement": "MIC 1: MIC of the substance tested alone", "setting": "[2]", "result": 2.50},
      {"measurement": "MIC 2: MIC of the substance tested in combination", "setting": "[1]; combination MEF + LVX", "result": 0.31},
      {"measurement": "MIC 1: MIC of the substance tested alone", "setting": "[1]", "result": 0.62}
    ]},
    {"smiles": "COc1c(N2CCNC(C)C2)c(F)cc2c(=O)c(C(=O)O)cn(C3CC3)c12", "note": "(stereo not drawn) [GAT, gatifloxacin]", "values": [
      {"measurement": "MIC 2: MIC of the substance tested in combination", "setting": "[2]; combination MFL + GAT", "result": 0.31},
      {"measurement": "MIC 1: MIC of the substance tested alone", "setting": "[2]", "result": 0.62},
      {"measurement": "MIC 2: MIC of the substance tested in combination", "setting": "[1]; combination MFL + GAT", "result": 0.15},
      {"measurement": "MIC 1: MIC of the substance tested alone", "setting": "[1]", "result": 0.12}
    ]}
  ]
}
